# Data taken from PMC4453610 (British Journal of Cancer, 2014).
# Tests used:
# clinical = conditions: human, plasma, oral
# [1] = Pharmacokinetic analysis of sorafenib in plasma of patients; assay type: in vivo, human; conditions: compared with previous studies of 400 mg b.i.d. sorafenib
# [2] = Day 1 of Cycle 2 vs Day 5 of Cycle 1
# [3] = geometric mean, with vs without sorafenib
circulating concentrations of sorafenib when dosed in combination with cyclophosphamide and letrozole [1],SMILES,average decrease in t1/2 when co-administered with sorafenib [2],average decrease of AUC (0–24) when co-administered with sorafenib [2],average reduction of Cmax when co-administered with sorafenib [2],"AUC(0–24) Ratio cycles 2/1, geometric mean [3]","Cmax Ratio cycles 2/1, geometric mean [3]","AUC(0-t) (clinical; AUC(0–24) Cycle 1, geometric mean, Day 5, Cycle 1, without sorafenib)","AUC(0-t) (clinical; AUC(0–24) Cycle 2, geometric mean, Day 1, Cycle 2, with 400 mg bid sorafenib)"
–,O=P1(N(CCCl)CCCl)NCCCO1 (centres unmarked) [cyclophosphamide],27%,29%,12%,0.71,0.88,16700 ng·h/mL,11900 ng·h/mL
not significantly affected,"CNC(=O)c1cc(Oc2ccc(NC(=O)Nc3ccc(Cl)c(C(F)(F)F)c3)cc2)ccn1 [sorafenib, Sorafenib]",–,–,–,–,–,–,–
